# Data published in patent publication US9586928B2 (The Scripps Research Institute, priority 2011, dated 2017).
# Key:
# GST-RORγ = biological target: T1, GST-RORγ (Homo sapiens, UniProt P51449); assay: RORγ scintillation proximity (SPA) radioligand binding assay, displacement of [3H]-T0901317; settings: read-out: RORγ SPA % bound = % radiolabel bound; for remaining activity at 10 µM: 10 μM compound; for remaining activity at 1 µM: 1 μM compound (Table 2D)
# T1 construct: 1 μg of GST-RORγ-LBD, 5 nM of [3H]T1317 as radioligand
# T1 sequence (P51449 269-508 limits assumed): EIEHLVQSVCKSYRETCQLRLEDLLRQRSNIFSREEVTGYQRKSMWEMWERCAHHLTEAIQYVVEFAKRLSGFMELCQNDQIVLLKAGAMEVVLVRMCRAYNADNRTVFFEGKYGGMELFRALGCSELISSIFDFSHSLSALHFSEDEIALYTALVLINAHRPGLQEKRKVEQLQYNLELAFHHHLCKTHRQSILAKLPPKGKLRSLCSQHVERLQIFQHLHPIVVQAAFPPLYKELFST
# VP16 = assay: Gal4 DBD-VP16 / UAS luciferase control assay; assay type: cell-based; settings: 10 μM
# Protocol: The cells were treated with either DMSO or various compounds as indicated four hours after replating. Following additional 20 hour incubation, luciferase levels were assayed by one-step addition of 20 μL BriteLite (Perkin Elmer) and read using an Envision multilabel plate reader (Perkin Elmer).
# RORγ = biological target: T2, RORγ (Homo sapiens, UniProt P51449); assay: Gal4-RORγ LBD / UAS luciferase cotransfection assay; assay type: cell-based; settings: 10 μM
# T2 construct: expressed in transfected cells; host or cells: HEK293T
# T2 sequence (P51449 269-508 limits assumed): T1 sequence (P51449 269-508 limits assumed)
structure (smiles),measurement,setting,value
"OC(c1ccc(-c2ccc(CN3CCN(Cc4ccncc4)CC3)cc2)cc1F)(C(F)(F)F)C(F)(F)F [Compound 105, 1,1,1,3,3,3-Hexafluoro-2-(3-fluoro-4′-((4-(pyridin-4-ylmethyl)piperazin-1-yl)methyl)-[1,1′-biphenyl]-4-yl)propan-2-ol]",remaining activity at 10 µM,GST-RORγ,80%
"COc1cc(-c2ccc(CN3CCN(Cc4ccncc4)CC3)cc2)ccc1C(O)(C(F)(F)F)C(F)(F)F [Compound 106, 1,1,1,3,3,3-Hexafluoro-2-(3-methoxy-4′-((4-(pyridin-4-ylmethyl)piperazin-1-yl)methyl)-[1,1′-biphenyl]-4-yl)propan-2-ol]",remaining activity at 10 µM,GST-RORγ,40%
"Cc1cc(-c2ccc(CN3CCN(Cc4ccncc4)CC3)cc2)ccc1C(O)(C(F)(F)F)C(F)(F)F [Compound 107, 1,1,1,3,3,3-Hexafluoro-2-(3-methyl-4′-((4-(pyridin-4-ylmethyl)piperazin-1-yl)methyl)-[1,1′-biphenyl]-4-yl)propan-2-ol]",remaining activity at 10 µM,GST-RORγ,100%
"OC(c1ccc(-c2ccc(CN3CCN(Cc4c[nH]cn4)CC3)cc2)cc1)(C(F)(F)F)C(F)(F)F [Compound 112, 2-(4′-((4-((1H-Imidazol-5-yl)methyl)piperazin-1-yl)methyl)-[1,1′-biphenyl]-4-yl)-1,1,1,3,3,3-hexafluoropropan-2-ol]",remaining activity at 10 µM,GST-RORγ,48%
CC1CN(Cc2ccc(-c3ccc(C(O)(C(F)(F)F)C(F)(F)F)cc3)cc2)CCN1Cc1ccncc1 (centres unmarked) [Compound 117],remaining activity at 10 µM,GST-RORγ,20%
CC1CN(Cc2ccncc2)CCN1Cc1ccc(-c2ccc(C(O)(C(F)(F)F)C(F)(F)F)cc2)cc1 (centres unmarked) [Compound 118],remaining activity at 10 µM,GST-RORγ,20%
O=C1CN(Cc2ccc(-c3ccc(C(O)(C(F)(F)F)C(F)(F)F)cc3)cc2)CCN1Cc1ccncc1 [Compound 119],remaining activity at 10 µM,GST-RORγ,15%
O=C1CN(Cc2ccncc2)CCN1Cc1ccc(-c2ccc(C(O)(C(F)(F)F)C(F)(F)F)cc2)cc1 [Compound 120],remaining activity at 10 µM,GST-RORγ,15%
"O=C(Nc1ccc(-c2ccc(C(O)(C(F)(F)F)C(F)(F)F)cc2)cc1)N1CCN(Cc2ccncc2)CC1 [Compound 136, N-(4′-(1,1,1,3,3,3-hexafluoro-2-hydroxypropan-2-yl)-[1,1′-biphenyl]-4-yl)-4-(pyridin-4-ylmethyl)piperazine-1-carboxamide]",remaining activity at 1 µM,GST-RORγ,76%
"O=C(Cc1ccc(-c2ccc(C(O)(C(F)(F)F)C(F)(F)F)cc2)cc1)N1CCN(Cc2ccncc2)CC1 [Compound 137, 2-(4′-(1,1,1,3,3,3-hexafluoro-2-hydroxypropan-2-yl)-[1,1′-biphenyl]-4-yl)-1-(4-(pyridin-4-ylmethyl)piperazin-1-yl)ethanone]",remaining activity at 1 µM,GST-RORγ,81%
"O=S(=O)(c1ccc(-c2ccc(C(O)(C(F)(F)F)C(F)(F)F)cc2)cc1)N1CCN(Cc2ccncc2)CC1 [Compound 138, 1,1,1,3,3,3-hexafluoro-2-(4′-((4-(pyridin-4-ylmethyl)piperazin-1-yl)sulfonyl)-[1,1′-biphenyl]-4-yl)propan-2-ol]",remaining activity at 1 µM,GST-RORγ,68%
"OC(c1ccc(-c2ccc3c(c2)CCC3N2CCN(Cc3ccncc3)CC2)cc1)(C(F)(F)F)C(F)(F)F (centres unmarked) [Compound 139, 1,1,1,3,3,3-hexafluoro-2-(4-(1-(4-(pyridin-4-ylmethyl)piperazin-1-yl)-2,3-dihydro-H I-inden-5-yl)phenyl)propan-2-ol]",remaining activity at 1 µM,GST-RORγ,59%
"CC(c1ccc(-c2ccc(C(O)(C(F)(F)F)C(F)(F)F)cc2)cc1)N1CCN(Cc2ccncc2)CC1 (centres unmarked) [Compound 140, 1,1,1,3,3,3-hexafluoro-2-(4′-(1-(4-(pyridin-4-ylmethyl)piperazin-1-yl)ethyl)-[1,1′-biphenyl]-4-yl)propan-2-ol]",remaining activity at 1 µM,GST-RORγ,74%
"CCC(c1ccc(-c2ccc(C(O)(C(F)(F)F)C(F)(F)F)cc2)cc1)N1CCN(Cc2ccncc2)CC1 (centres unmarked) [Example 141, 1,1,1,3,3,3-hexafluoro-2-(4′-(1-(4-(pyridin-4-ylmethyl)piperazin-1-yl)propyl)-[1,1′-biphenyl]-4-yl)propan-2-ol]",remaining activity at 1 µM,GST-RORγ,74%
"CCCCC(c1ccc(-c2ccc(C(O)(C(F)(F)F)C(F)(F)F)cc2)cc1)N1CCN(Cc2ccncc2)CC1 (centres unmarked) [Example 142, 1,1,1,3,3,3-hexafluoro-2-(4′-(1-(4-(pyridin-4-ylmethyl)piperazin-1-yl)pentyl)-[1,1′-biphenyl]-4-yl)propan-2-ol]",remaining activity at 1 µM,GST-RORγ,73%
"CC(Cc1ccc(-c2ccc(C(O)(C(F)(F)F)C(F)(F)F)cc2)cc1)N1CCN(Cc2ccncc2)CC1 (centres unmarked) [Example 143, 1,1,1,3,3,3-hexafluoro-2-(4′-(2-(4-(pyridin-4-ylmethyl)piperazin-1-yl)propyl)-[1,1′-biphenyl]-4-yl)propan-2-ol]",remaining activity at 1 µM,GST-RORγ,74%
"OC(c1ccc(-c2ccc(CCN3CCN(Cc4ccncc4)CC3)cc2)cc1)(C(F)(F)F)C(F)(F)F [Example 144, 1,1,1,3,3,3-hexafluoro-2-(4′-(2-(4-(pyridin-4-ylmethyl)piperazin-1-yl)ethyl)-[1,1′-biphenyl]-4-yl)propan-2-ol]",remaining activity at 1 µM,GST-RORγ,61%
"O=S(=O)(c1cccs1)N1CCN(Cc2ccc(-c3ccc(C(O)(C(F)(F)F)C(F)(F)F)cc3)cc2)CC1 [Example 145, 1,1,1,3,3,3-Hexafluoro-2-(4′-((4-(thiophen-2-ylsulfonyl)piperazin-1-yl)methyl)-[1,1′-biphenyl]-4-yl)propan-2-ol]","VP16 repression, fold change over DMSO",VP16,3.0 fold change over DMSO
same,"RORγ repression, fold change over DMSO",RORγ,3.0 fold change over DMSO
"O=S(=O)(c1ccc(C(F)(F)F)cc1)N1CCN(Cc2ccc(-c3ccc(C(O)(C(F)(F)F)C(F)(F)F)cc3)cc2)CC1 [Example 146, 1,1,1,3,3,3-Hexafluoro-2-(4′-((4-((4-(trifluoromethyl)phenyl)sulfonyl)piperazin-1-yl)methyl)-[1,1′-biphenyl]-4-yl)propan-2-ol]","VP16 repression, fold change over DMSO",VP16,0.7 fold change over DMSO
same,"RORγ repression, fold change over DMSO",RORγ,0.9 fold change over DMSO
"O=S(=O)(c1ccc(CBr)cc1)N1CCN(Cc2ccc(-c3ccc(C(O)(C(F)(F)F)C(F)(F)F)cc3)cc2)CC1 [Example 147, 2-(4′-((4-((4-(Bromomethyl)phenyl)sulfonyl)piperazin-1-yl)methyl)-[1,1′-biphenyl]-4-yl)-1,1,1,3,3,3-hexafluoropropan-2-ol]","VP16 repression, fold change over DMSO",VP16,0.5 fold change over DMSO
same,"RORγ repression, fold change over DMSO",RORγ,0.5 fold change over DMSO
"Cc1ccc([N+](=O)[O-])cc1S(=O)(=O)N1CCN(Cc2ccc(-c3ccc(C(O)(C(F)(F)F)C(F)(F)F)cc3)cc2)CC1 [Example 148, 1,1,1,3,33-Hexafluoro-2-(4′-((4-((2-methyl-5-nitrophenyl)sulfonyl)piperazin-1-yl)methyl)-[1,1′-biphenyl]-4-yl)propan-2-ol]","VP16 repression, fold change over DMSO",VP16,1.0 fold change over DMSO
same,"RORγ repression, fold change over DMSO",RORγ,0.4 fold change over DMSO
"O=[N+]([O-])c1ccc(S(=O)(=O)N2CCN(Cc3ccc(-c4ccc(C(O)(C(F)(F)F)C(F)(F)F)cc4)cc3)CC2)cc1 [Example 149, 1,1,1,3,3,3-Hexafluoro-2-(4′-((4-((4-nitrophenyl)sulfonyl)piperazin-1-yl)methyl)-[1,1′-biphenyl]-4-yl)propan-2-ol]","VP16 repression, fold change over DMSO",VP16,0.7 fold change over DMSO
same,"RORγ repression, fold change over DMSO",RORγ,0.5 fold change over DMSO
"O=C(OCc1ccccc1)N1CCN(Cc2ccc(-c3ccc(C(O)(C(F)(F)F)C(F)(F)F)cc3)cc2)CC1 [Example 150, Benzyl 4-((4′-(1,1,1,3,3,3-hexafluoro-2-hydroxypropan-2-yl)-[1,1′-biphenyl]-4-yl)methyl)piperazine-1-carboxylate]","VP16 repression, fold change over DMSO",VP16,0.9 fold change over DMSO
same,"RORγ repression, fold change over DMSO",RORγ,0.5 fold change over DMSO
"O=C(Oc1ccc([N+](=O)[O-])cc1)N1CCN(Cc2ccc(-c3ccc(C(O)(C(F)(F)F)C(F)(F)F)cc3)cc2)CC1 [Example 151, 4-Nitrophenyl 4-((4′-(1,1,1,3,3,3-hexafluoro-2-hydroxypropan-2-yl)-[1,1′-biphenyl]-4-yl)methyl)piperazine-1-carboxylate]","VP16 repression, fold change over DMSO",VP16,0.6 fold change over DMSO
same,"RORγ repression, fold change over DMSO",RORγ,0.6 fold change over DMSO
"OC(c1ccc(-c2ccc(CN3CCN(Cc4ccc5cc[nH]c5c4)CC3)cc2)cc1)(C(F)(F)F)C(F)(F)F [Example 154, 2-(4′-((4-((1H-indol-6-yl)methyl)piperazin-1-yl)methyl)-[1,1′-biphenyl]-4-yl)-1,1,1,3,3,3-hexafluoropropan-2-ol]",remaining activity at 1 µM,GST-RORγ,90%
"OC(c1ccc(-c2ccc(CN3CCN(Cc4ccc5nc[nH]c5c4)CC3)cc2)cc1)(C(F)(F)F)C(F)(F)F [Example 155, 2-(4′-((4-((1H-benzo[d]imidazol-6-yl)methyl)piperazin-1-yl)methyl)-[1,1′-biphenyl]-4-yl)-1,1,1,3,3,3-hexafluoropropan-2-ol]",remaining activity at 1 µM,GST-RORγ,100%
"CC(C)Oc1cc(C(O)(C(F)(F)F)C(F)(F)F)ccc1-c1ccc(CN2CCN(Cc3ccncc3)CC2)cc1 [Example 156, 1,1,1,3,3,3-hexafluoro-2-(2-isopropoxy-4′-((4-(pyridin-4-ylmethyl)piperazin-1-yl)methyl)-[1,1′-biphenyl]-4-yl)propan-2-ol]",remaining activity at 1 µM,GST-RORγ,75%
"CC(C)CCN1CCN(Cc2ccc(-c3ccc(C(O)(C(F)(F)F)C(F)(F)F)cc3)cc2)CC1 [Example 157, 1,1,1,3,3,3-hexafluoro-2-(4′-((4-isopentylpiperazin-1-yl)methyl)-[1,1′-biphenyl]-4-yl)propan-2-ol]",remaining activity at 1 µM,GST-RORγ,20%
